Legend:
Cathepsin K = molecular target: T1, Cathepsin K (Homo sapiens, UniProt P43235); test: Inhibitory potency against human Cathepsin K
T1 sequence (P43235 whole entry): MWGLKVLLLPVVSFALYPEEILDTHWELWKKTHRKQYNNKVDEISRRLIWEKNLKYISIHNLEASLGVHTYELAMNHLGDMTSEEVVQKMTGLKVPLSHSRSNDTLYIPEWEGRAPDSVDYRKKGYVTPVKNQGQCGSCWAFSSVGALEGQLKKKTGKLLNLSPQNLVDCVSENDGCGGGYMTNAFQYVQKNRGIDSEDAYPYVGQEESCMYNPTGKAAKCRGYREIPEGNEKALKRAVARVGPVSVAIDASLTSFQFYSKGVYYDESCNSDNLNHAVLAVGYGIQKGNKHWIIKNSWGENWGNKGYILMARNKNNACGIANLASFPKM

[1] = molecular target: Cathepsin (H and K) (Homo sapiens) (UniProt P09668+P43235); test: Selectivity for human Cathepsins H and K; type: protein assay
[2] = molecular target: Cathepsin (B and K) (Homo sapiens) (UniProt P43235+P07858); test: Selectivity for human Cathepsins B and K; type: protein assay
[3] = molecular target: Cathepsin (V and K) (Homo sapiens) (UniProt P43235+O60911); test: Selectivity for human Cathepsins V and K; type: protein assay
[4] = molecular target: Cathepsin (S and K) (Homo sapiens) (UniProt P25774+P43235); test: Selectivity for human Cathepsins S and K; type: protein assay
[5] = molecular target: Cathepsin (L and K) (Homo sapiens) (UniProt P43235+P07711); test: Selectivity for human Cathepsins L and K; type: protein assay
Chain of Cathepsin (L and K) (Homo sapiens) (P07711 whole entry, looked up, one chain of several): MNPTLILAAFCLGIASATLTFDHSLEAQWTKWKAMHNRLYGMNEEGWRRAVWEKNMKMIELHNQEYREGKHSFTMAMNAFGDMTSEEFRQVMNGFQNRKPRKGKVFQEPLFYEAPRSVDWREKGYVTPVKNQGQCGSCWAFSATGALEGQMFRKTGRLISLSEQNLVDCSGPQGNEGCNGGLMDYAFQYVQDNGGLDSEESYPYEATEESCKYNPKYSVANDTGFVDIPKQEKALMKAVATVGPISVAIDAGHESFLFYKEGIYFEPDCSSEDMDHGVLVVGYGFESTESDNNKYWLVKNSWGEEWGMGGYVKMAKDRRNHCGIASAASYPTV

Chain of Cathepsin (S and K) (Homo sapiens) (P25774 whole entry, looked up, one chain of several): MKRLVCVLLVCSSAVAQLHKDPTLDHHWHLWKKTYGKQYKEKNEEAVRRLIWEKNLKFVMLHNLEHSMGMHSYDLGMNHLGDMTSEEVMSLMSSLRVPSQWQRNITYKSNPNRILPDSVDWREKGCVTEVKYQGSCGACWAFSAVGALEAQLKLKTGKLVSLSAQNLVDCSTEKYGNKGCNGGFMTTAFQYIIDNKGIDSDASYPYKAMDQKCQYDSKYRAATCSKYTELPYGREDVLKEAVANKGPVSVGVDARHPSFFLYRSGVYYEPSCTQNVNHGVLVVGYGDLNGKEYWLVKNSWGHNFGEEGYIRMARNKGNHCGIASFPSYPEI
Chain of Cathepsin (V and K) (Homo sapiens) (O60911 whole entry, looked up, one chain of several): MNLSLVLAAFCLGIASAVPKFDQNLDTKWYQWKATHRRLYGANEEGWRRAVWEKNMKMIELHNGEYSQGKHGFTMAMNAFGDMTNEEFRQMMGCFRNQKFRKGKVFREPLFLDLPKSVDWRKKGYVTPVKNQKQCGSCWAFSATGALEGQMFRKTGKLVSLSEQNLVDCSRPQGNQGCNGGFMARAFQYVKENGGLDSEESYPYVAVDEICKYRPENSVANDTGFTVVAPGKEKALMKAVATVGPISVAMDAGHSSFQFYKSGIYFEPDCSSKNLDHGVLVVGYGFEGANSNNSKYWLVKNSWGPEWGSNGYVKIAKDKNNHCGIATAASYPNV
Chain of Cathepsin (H and K) (Homo sapiens) (P09668 whole entry, looked up, one chain of several): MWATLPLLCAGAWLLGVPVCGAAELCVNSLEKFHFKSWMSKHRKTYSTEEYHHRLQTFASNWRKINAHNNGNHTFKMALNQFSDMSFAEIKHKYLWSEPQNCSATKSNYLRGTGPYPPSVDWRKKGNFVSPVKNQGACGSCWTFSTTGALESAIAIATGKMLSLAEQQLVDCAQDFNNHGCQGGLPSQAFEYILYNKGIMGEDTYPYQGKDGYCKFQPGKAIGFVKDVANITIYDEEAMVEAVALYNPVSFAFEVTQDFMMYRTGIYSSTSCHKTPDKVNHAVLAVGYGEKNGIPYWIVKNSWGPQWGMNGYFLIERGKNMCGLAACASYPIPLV

IC50 (Cathepsin K) [nM]	Structure (SMILES)	other results
260	CCCC[C@H](NC(=O)OCC1(COc2ncccn2)CCC1)C(=O)C(=O)N[C@H](C)c1ccccc1	
17	CCCC[C@H](NC(=O)OCC1(CSc2nccs2)CCC1)C(=O)C(=O)N[C@H](C)c1ccccc1	Selectivity [1]: > 720; Selectivity [2]: 390; Selectivity [3]: 41; Selectivity [4]: 4; Selectivity [5]: 250
54	CCCC[C@H](NC(=O)OCC1(COc2ccnc(N3CCN(C)CC3)n2)CCC1)C(=O)C(=O)N[C@H](C)c1ccccc1	
54	CCCC[C@H](NC(=O)OCC1(COc2ccnc(N3CCOCC3)n2)CCC1)C(=O)C(=O)N[C@H](C)c1ccccc1	
37	CCCC[C@H](NC(=O)OCC1(COc2nccs2)CCC1)C(=O)C(=O)N[C@H](C)c1ccccc1	
50	CCCC[C@H](NC(=O)OCC1(COc2nc(-c3ccccc3)ns2)CCC1)C(=O)C(=O)N[C@H](C)c1ccccc1	
11	CCCC[C@H](NC(=O)OCC1(CSc2ncccn2)CCC1)C(=O)C(=O)N[C@H](C)c1ccccc1	
87	CCCC[C@H](NC(=O)OCC1(CSc2nccn2-c2ccccc2)CCC1)C(=O)C(=O)N[C@H](C)c1ccccc1	
51	CCCC[C@H](NC(=O)OCC1(CSc2nc3ccccc3o2)CCC1)C(=O)C(=O)N[C@H](C)c1ccccc1	
230	CCCC[C@H](NC(=O)OCC1(CSc2ncc(-c3ccc(Cl)cc3)n2C)CCC1)C(=O)C(=O)N[C@H](C)c1ccccc1	
57	CCCC[C@H](NC(=O)OCC1(COc2nnc(C)cc2-c2ccccc2)CCC1)C(=O)C(=O)N[C@H](C)c1ccccc1	
9.5	CCCC[C@H](NC(=O)OCC1(CSc2nccc(-c3ccc(Cl)cc3)n2)CCC1)C(=O)C(=O)N[C@H](C)c1ccccc1	
31	CCCC[C@H](NC(=O)OCC1(COc2ccnc(N3CCN(c4ccccc4)CC3)n2)CCC1)C(=O)C(=O)N[C@H](C)c1ccccc1	
> 12000	CCCC[C@H](NC(=O)OCC1(CCSc2nccn2C)CCC1)C(=O)C(=O)N[C@H](C)c1ccccc1	
61	CCCC[C@H](NC(=O)OCC1(CSc2nccn2C)CCC1)C(=O)C(=O)N[C@H](C)c1ccccc1	
> 12000	CCCC[C@H](NC(=O)OCC1(CCCOc2ccnc(Cl)n2)CCC1)C(=O)C(=O)N[C@H](C)c1ccccc1	
85	CCCC[C@H](NC(=O)OCC1(COc2ccnc(Cl)n2)CCC1)C(=O)C(=O)N[C@H](C)c1ccccc1	
1900	CCCC[C@H](NC(=O)OCC1(CCCSc2nccn2C)CCC1)C(=O)C(=O)N[C@H](C)c1ccccc1	
98	CCCC[C@H](NC(=O)OCC1(COc2ncnc3ccsc23)CCC1)C(=O)C(=O)N[C@H](C)c1ccccc1	
150	CCCC[C@H](NC(=O)OCC1(COc2nc(-c3ccc(C)cc3)cs2)CCC1)C(=O)C(=O)N[C@H](C)c1ccccc1	
5.5	CCCC[C@H](NC(=O)OCC1(Cc2nc(-c3ccccc3)cs2)CCC1)C(=O)C(=O)N[C@H](C)c1ccccc1	Selectivity [1]: > 230; Selectivity [2]: 660; Selectivity [3]: 20; Selectivity [4]: 22; Selectivity [5]: 220

— ChEMBL document CHEMBL1138698, “Ketoamide-based inhibitors of cysteine protease, cathepsin K: P3 modifications” (J Med Chem, 2004)
